From ChEMBL document CHEMBL1124755, “Role of hydrogen bonding in ligand interaction with the N-methyl-D-aspartate receptor ion channel” (J Med Chem, 1990)

Biological target: Glutamate NMDA receptor
Assay: Evaluated for its affinity to bind ion channel binding sites (phencyclidine or PCP receptor) on the N-methyl-D-aspartate glutamate receptor in rat brain membrane using [3H]MK-801 as radioligand
Type: cell membranes

| IC50 [µM] | Structure (SMILES) |
| --- | --- |
| 6.6 | C[C@@]12N[C@@](C)(c3ccccc31)C(O)c1ccccc12 (mixture of isomers; 14) |
| 0.065 | C[C@@]12N[C@@](C)(c3ccccc31)C(O)c1ccccc12 (mixture of isomers; 13) |
| 0.95 | CC12Cc3ccccc3[C@@H](O)C(CN1)c1ccccc12 (mixture of isomers) |

| Structure (SMILES) | IC50 [µM] |
| --- | --- |
| C[C@@]12Cc3ccccc3C(CN1)[C@@H](O)c1ccccc12 (mixture of isomers) | 8.1 |

Biological target: Glutamate NMDA receptor
Assay: Evaluated for its affinity to bind PCP N-methyl-D-aspartate (NMDA) glutamate receptor in rat brain membrane using [3H]MK-801 as radioligand
Type: cell membranes

| Structure (SMILES) | IC50 [nM] |
| --- | --- |
| C[C@]12N[C@H](Cc3ccccc31)Cc1ccccc12 | 140 |
| C[C@@]12Cc3cc(Br)ccc3C[C@@H](N1)c1ccccc12 (racemic) | 79 |
| Cc1cccc2c1[C@H]1Cc3ccccc3[C@]2(C)N1 (racemic) | 3000 |
| CC12Cc3ccccc3[C@H](Cc3ccccc31)N2 (mixture of isomers) | 690 |
| Cc1ccc2c(c1)[C@H]1Cc3ccccc3[C@]2(C)N1 (racemic) | 440 |
| Cc1ccc2c(c1)[C@@]1(C)N[C@@H]2Cc2ccccc21 (racemic) | 100 |
| CN1[C@@H]2Cc3ccccc3C[C@@]1(C)c1ccccc12 (racemic) | 530 |
| CCN1[C@@H]2Cc3ccccc3C[C@@]1(C)c1ccccc12 (racemic) | 2510 |
| C[C@@]12Cc3ccc(Cl)cc3C[C@@H](N1)c1ccccc12 (racemic) | 190 |
| C[C@]12N[C@](C)(c3ccccc31)c1ccccc12 | 24 |
| c1ccc2c(c1)C[C@@H]1N[C@H](C2)c2ccccc21 | 640 |
| C[C@@]12Cc3ccccc3C[C@@H](N1)c1ccccc12 (stereo in doubt; (-)-15) | 106 |
| C[C@]12N[C@](C)(Cc3ccccc31)c1ccccc12 (racemic) | 35 |
| C[C@]12Cc3ccccc3C[C@H](c3ccccc31)N2Cc1ccccc1 (racemic) | 23000 |
| C[C@]12Cc3ccccc3C[C@H](c3ccccc31)[N+]2(C)C (racemic) | 7100 |
| CCCC[C@@]12Cc3ccccc3C[C@@](C)(N1)c1ccccc12 (racemic) | 3600 |
| C[C@@]12Cc3ccccc3C[C@@H](N1)c1c(Cl)cccc12 (racemic) | 1370 |
| C[C@]12N[C@H](Cc3ccccc31)c1cc3ccccc3cc12 (racemic) | 86000 |
| C[C@]12Cc3ccccc3C[C@](O)(N1)c1ccccc12 (racemic) | 104 |
| C[C@@]12Cc3ccccc3[C@@H](C=N1)c1ccccc12 (racemic) | > 100000 |

| Structure (SMILES) | IC50 [nM] |
| --- | --- |
| CC12Cc3ccccc3[C@@H](N1)c1ccccc12 (mixture of isomers) | 260 |
| C[C@@]12Cc3ccccc3C[C@@H](N1)c1ccc(Br)cc12 (racemic) | 140 |
| C[C@@]12Cc3ccccc3C[C@@H](N1)c1ccccc12 (racemic) | 86 |
| C[C@]12N[C@H](Cc3cc4ccccc4cc31)c1ccccc12 (racemic) | 89000 |
| C[C@@]12N[C@@H](c3ccccc31)[C@H](O)c1ccccc12 (racemic) | 640 |
| C[C@@]12Cc3ccc(O)cc3C[C@@H](N1)c1ccccc12 (racemic) | 140 |
| C[C@@]12Cc3ccccc3C[C@@H](N1)c1ccccc12 (stereo in doubt; (+)-15) | 104 |
| CC1c2ccccc2C[C@H]2N[C@]1(C)c1ccccc12 (mixture of isomers) | 590 |
| C[C@@]12Cc3ccccc3C[C@@H](N1)c1cc(Cl)ccc12 (racemic) | 250 |
| CC[C@@]12Cc3ccccc3C[C@@H](N1)c1ccccc12 (racemic) | 1360 |
| C[C@@]12Cc3ccccc3C[C@@H](N1)c1cc(Br)ccc12 (racemic) | 270 |
| COc1ccc2c(c1)C[C@H]1N[C@@](C)(C2)c2ccccc21 (racemic) | 220 |
| C[C@@]12Cc3ccc(Br)cc3C[C@@H](N1)c1ccccc12 (racemic) | 320 |
| Cc1cccc2c1C[C@H]1N[C@]2(C)c2ccccc21 (racemic) | 800 |
| C[C@]12N[C@H](Cc3ccccc31)c1c2ccc2ccccc12 (racemic) | 2300 |
| C[C@]12Cc3ccccc3[C@@H]3[C@H](c4ccccc41)N32 (mixture of isomers) | > 100000 |
| C[C@]12Cc3ccccc3C[C@](C)(N1)c1ccccc12 | 30 |
| Cc1ccc2c(c1)C[C@H]1N[C@]2(C)c2ccccc21 (racemic) | 640 |
| Cc1ccc2c(c1)[C@]1(C)N[C@H](C2)c2ccccc21 (racemic) | 32 |
| C[C@]12N[C@H](Cc3c1ccc1ccccc31)c1ccccc12 (racemic) | 5800 |
